Key:
Type in all cases: in vivo
Design in all cases: scale not given here
[1] = system: Echinochloa crus-galli (L.) Beauv. var. crusgalli; experiment: Herbicidal effect by upland field soil treatment; settings: active ingredient 1000 g/ha, examined at 21st day from treatment
From the text: (§1) An upland field soil was filled in a plastic pot of 80 cm^2. Seeds of Echinochloa crus-galli (L.) Beauv. var. crusgalli and Setaria viridis (L.) Beauv. were sowed, followed by covering with the same soil. […] Then, breeding was made in a greenhouse, and the herbicidal effect of each wettable powder was examined at the 21st day from the treatment in accordance with the standard shown in Table 21.

[2] = system: Setaria viridis (L.) Beauv.; experiment: Herbicidal effect by upland field soil treatment; settings: active ingredient 1000 g/ha, examined at 21st day from treatment
From the text: as §1

[3] = system: Monochoria vaginalis (Murm. f.) Presl var. plantaginea (Roxb.) Solms-Laub.; experiment: Herbicidal effect by paddy field soil treatment; settings: wettable powder, active ingredient 1000 g/ha, examined at the 21st day from the treatment
Method: (§2) A paddy field soil was filled in a plastic pot of 100 cm^2 and subjected to puddling. Then, seeds of Echinochloa oryzicola Vasing and Monochoria vaginalis (Murm. f.) Presl var. plantaginea (Roxb.) Solms-Laub. were sowed and water was filled in a depth of 3 cm. Next day, wettable powders produced in accordance with the Formulation 1 were diluted with water and dropped on the water surface. The application amount of each wettable powder was 1,000 g per 1 hectare in terms of the active ingredient. Then, breeding was made in a greenhouse, and the herbicidal effect of each wettable powder was examined at the 21st day from the treatment in accordance with the standard shown in Table 21.

[4] = system: Echinochloa oryzicola Vasing; experiment: Herbicidal effect by paddy field soil treatment; settings: wettable powder, active ingredient 1000 g/ha, examined at the 21st day from the treatment
Method: as §2

| SMILES | herbicidal effect (index per standard of Table 21), Echinochloa curs-galli (L.) Beauv. Var. crus-galli [1] | herbicidal effect (index per standard of Table 21), Setaria viridis (L.) Beauv. [2] | Herbicidal effect index, Monochoria vaginalis (Burm. F.) Presl var. plantaginea (Roxb.) Solms-Laub. [3] | Herbicidal effect index, Echinochloa oryzicola Vasing [4] |
| --- | --- | --- | --- | --- |
| Cc1ccc(CS(=O)(=O)C2=NOC(C)(C)C2)s1 [1-0003] | 5 | 5 | 5 | 5 |
| CC1(C)CC(S(=O)(=O)Cc2ccc(Cl)s2)=NO1 [1-0005] | 5 | 5 | 5 | 5 |
| CC1(C)CC(S(=O)(=O)Cc2cc(Cl)sc2Cl)=NO1 [2-0005] | 5 | 5 | 5 | 5 |
| CC1(C)CC(S(=O)(=O)Cc2c(Cl)sc(Cl)c2Cl)=NO1 [2-0006] | 5 | 4 | 5 | 5 |
| CNC(=O)c1c(Cl)sc(Cl)c1CS(=O)(=O)C1=NOC(C)(C)C1 [2-0012] | 5 | 5 | 5 | 5 |
| CC1(C)CC(S(=O)(=O)Cc2c(C(F)(F)F)n[nH]c2Cl)=NO1 [3-0034] | 5 | 5 | 5 | 5 |
| Cn1nc(Cl)c(CS(=O)(=O)C2=NOC(C)(C)C2)c1C(F)(F)F [3-0040] | 5 | 5 | 5 | 5 |
| Cn1nc(C(F)(F)F)c(CS(=O)(=O)C2=NOC(C)(C)C2)c1F [3-0041] | 5 | 5 | 5 | 5 |
| Cn1nc(C(F)(F)F)c(CS(=O)(=O)C2=NOC(C)(C)C2)c1OC(C)(C)C [3-0047] | 5 | 5 | 5 | 5 |
| Cn1nc(C(F)(F)F)c(CS(=O)(=O)C2=NOC(C)(C)C2)c1OC(F)F [3-0054] | 5 | 5 | 5 | 5 |
| Cn1nc(C(F)(F)F)c(CS(=O)(=O)C2=NOC(C)(C)C2)c1OCc1ccccc1 [3-0059] | 5 | 5 | 5 | 5 |
| Cn1nc(C(F)(F)F)c(CS(=O)(=O)C2=NOC(C)(C)C2)c1Oc1ccccc1 [3-0060] | 5 | 5 | 5 | 5 |
| Cn1nc(C(F)(F)F)c(CS(=O)(=O)C2=NOC(C)(C)C2)c1S(=O)(=O)c1ccccc1 [3-0070] | 4 | 4 | 5 | 5 |
| Cn1nc(-c2ccccc2)c(CS(=O)(=O)C2=NOC(C)(C)C2)c1Cl [3-0072] | 5 | 5 | 5 | 5 |
| CC1(C)CC(S(=O)(=O)Cc2c(C(F)(F)F)nn(Cc3ccccc3)c2Cl)=NO1 [3-0087] | 5 | 5 | 5 | 5 |
| CC1(C)CC(S(=O)(=O)Cc2c(Cl)nn(Cc3ccccc3)c2C(F)(F)F)=NO1 [3-0088] | 5 | 4 | 5 | 5 |
| CC1(C)CC(S(=O)(=O)Cc2c(C(F)(F)F)nn(C3CCCCC3)c2Cl)=NO1 [3-0091] | 5 | 5 | 5 | 5 |
| CC1(C)CC(S(=O)(=O)Cc2c(C(F)(F)F)nn(CC(F)F)c2Cl)=NO1 [3-0114] | 5 | 5 | 5 | 5 |
| CC1(C)CC(S(=O)(=O)Cc2c(Cl)nn(CC(F)(F)F)c2C(F)(F)F)=NO1 [3-0117] | 5 | 5 | 5 | 5 |
| CC1(C)CC(S(=O)(=O)Cc2sc3ccccc3c2Br)=NO1 [10-0011] | – | – | 5 | 5 |
